Assay results taken from US20090311217A1, “3-SUBSTITUTED-1H-INDOLE COMPOUNDS, THEIR USE AS MTOR KINASE AND PI3 KINASE INHIBITORS, AND THEIR SYNTHESES” (priority 2008, published 2009).
Read-outs that look alike come from different tables or passages of the source.

Assays:
Format in all cases: biochemical
[1] = biological target: PI3K-gamma (Homo sapiens, UniProt P48736); assay: PI3K-gamma fluorescence polarization assay
In short: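 Reactions in 5 mM HEPES pH 7, 2.5 mM MgCl2, 25 μM ATP with 2.5 μM diC8-PI(4,5)P2 and 5 ng enzyme, 1 h at 25° C, then EDTA quench. Product detected by FP using GST-GRP1 PH domain (100 nM) and BODIPY-TMR-IP4 tracer (5 nM); final DMSO 0.8%.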

[2] = biological target: PI3K-alpha (Homo sapiens, UniProt P42336); assay: PI3K-alpha fluorescence polarization assay; details: read-out: PI3Kα Avg. IC50
[3] = biological target: T1, human TOR (Homo sapiens, UniProt P42345); assay: mTOR enzyme assay (DELFIA, His6-S6K substrate); details: read-out: mTOR Kinase Avg. IC50
T1 construct: FLAG

Chain of PI3K-alpha (P42336 whole entry, species assumed): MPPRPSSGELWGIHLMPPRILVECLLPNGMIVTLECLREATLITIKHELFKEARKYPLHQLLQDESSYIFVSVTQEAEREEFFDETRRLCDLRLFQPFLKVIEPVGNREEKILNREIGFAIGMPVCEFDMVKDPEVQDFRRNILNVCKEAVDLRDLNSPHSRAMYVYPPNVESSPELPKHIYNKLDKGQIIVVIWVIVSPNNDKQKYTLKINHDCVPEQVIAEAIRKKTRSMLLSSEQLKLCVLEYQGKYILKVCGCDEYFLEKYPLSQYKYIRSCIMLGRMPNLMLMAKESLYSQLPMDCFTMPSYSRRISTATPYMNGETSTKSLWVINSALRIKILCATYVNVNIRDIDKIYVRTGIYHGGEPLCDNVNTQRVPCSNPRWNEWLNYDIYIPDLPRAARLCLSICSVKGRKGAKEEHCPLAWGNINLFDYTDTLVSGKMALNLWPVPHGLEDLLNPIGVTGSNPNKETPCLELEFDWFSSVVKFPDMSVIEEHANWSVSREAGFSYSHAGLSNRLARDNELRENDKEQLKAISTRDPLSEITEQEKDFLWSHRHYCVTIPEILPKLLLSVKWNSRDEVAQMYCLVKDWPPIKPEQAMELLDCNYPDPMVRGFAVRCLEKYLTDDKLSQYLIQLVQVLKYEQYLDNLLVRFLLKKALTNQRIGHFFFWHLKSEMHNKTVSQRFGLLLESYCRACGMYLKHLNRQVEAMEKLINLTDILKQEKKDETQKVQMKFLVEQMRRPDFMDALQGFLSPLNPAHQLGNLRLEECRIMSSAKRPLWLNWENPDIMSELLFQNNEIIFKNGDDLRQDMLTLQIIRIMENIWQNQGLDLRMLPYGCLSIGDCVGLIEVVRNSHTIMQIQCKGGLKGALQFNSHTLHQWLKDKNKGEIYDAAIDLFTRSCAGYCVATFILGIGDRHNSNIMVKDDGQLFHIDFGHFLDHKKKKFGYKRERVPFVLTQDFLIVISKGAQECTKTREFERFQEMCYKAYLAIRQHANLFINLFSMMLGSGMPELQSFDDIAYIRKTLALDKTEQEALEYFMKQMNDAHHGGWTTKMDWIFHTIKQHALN
Chain of PI3K-alpha (P27986 whole entry partner, species assumed): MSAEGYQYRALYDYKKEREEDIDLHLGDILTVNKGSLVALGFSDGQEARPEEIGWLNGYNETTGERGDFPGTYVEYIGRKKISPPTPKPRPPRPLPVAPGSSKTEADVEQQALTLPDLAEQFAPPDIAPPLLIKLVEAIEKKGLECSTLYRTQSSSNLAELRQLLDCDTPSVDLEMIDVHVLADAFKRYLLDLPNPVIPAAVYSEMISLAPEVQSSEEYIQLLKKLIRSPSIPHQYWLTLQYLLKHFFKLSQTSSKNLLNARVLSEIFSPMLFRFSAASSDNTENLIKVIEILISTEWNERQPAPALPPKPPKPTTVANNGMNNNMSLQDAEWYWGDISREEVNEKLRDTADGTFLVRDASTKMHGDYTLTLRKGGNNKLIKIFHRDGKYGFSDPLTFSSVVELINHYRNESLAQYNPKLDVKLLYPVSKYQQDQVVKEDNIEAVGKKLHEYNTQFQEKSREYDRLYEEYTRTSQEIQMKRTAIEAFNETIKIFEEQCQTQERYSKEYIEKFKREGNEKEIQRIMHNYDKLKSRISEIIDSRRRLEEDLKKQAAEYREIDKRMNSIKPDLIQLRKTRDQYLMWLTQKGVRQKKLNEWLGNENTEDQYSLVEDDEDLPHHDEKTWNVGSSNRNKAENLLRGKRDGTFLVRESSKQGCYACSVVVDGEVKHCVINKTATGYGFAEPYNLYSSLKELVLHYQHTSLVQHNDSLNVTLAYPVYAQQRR
Chain of PI3K-gamma (P48736 whole entry, species assumed, the tested form may be a part): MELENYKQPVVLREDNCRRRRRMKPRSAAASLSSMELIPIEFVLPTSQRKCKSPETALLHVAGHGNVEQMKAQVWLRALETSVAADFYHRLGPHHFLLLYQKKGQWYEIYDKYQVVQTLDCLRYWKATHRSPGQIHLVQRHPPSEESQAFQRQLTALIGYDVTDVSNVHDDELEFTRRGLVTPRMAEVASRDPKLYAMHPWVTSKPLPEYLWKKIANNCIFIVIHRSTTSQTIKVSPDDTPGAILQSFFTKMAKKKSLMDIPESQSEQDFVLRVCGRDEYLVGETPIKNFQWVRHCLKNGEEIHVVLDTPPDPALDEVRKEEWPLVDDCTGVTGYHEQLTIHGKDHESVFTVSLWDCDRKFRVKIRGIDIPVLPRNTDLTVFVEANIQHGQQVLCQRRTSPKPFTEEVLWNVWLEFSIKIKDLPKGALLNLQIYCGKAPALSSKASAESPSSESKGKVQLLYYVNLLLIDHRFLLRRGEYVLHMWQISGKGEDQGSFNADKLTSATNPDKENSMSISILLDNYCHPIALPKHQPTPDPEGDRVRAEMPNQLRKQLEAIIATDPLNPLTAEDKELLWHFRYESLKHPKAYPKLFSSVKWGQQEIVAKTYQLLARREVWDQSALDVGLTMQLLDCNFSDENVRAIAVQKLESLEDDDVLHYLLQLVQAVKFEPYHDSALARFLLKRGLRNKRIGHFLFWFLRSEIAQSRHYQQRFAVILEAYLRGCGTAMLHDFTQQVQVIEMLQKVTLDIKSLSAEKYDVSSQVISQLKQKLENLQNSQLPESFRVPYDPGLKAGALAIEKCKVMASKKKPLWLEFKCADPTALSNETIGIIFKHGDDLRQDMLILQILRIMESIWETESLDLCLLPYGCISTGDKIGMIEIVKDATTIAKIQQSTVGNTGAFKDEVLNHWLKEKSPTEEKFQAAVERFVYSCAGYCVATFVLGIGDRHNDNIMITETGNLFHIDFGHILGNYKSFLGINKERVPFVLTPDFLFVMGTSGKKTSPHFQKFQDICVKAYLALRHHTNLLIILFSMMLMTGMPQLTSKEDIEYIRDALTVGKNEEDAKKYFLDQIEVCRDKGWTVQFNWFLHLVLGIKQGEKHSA

Structure (SMILES)	IC50 ([1]; PI3Kγ Avg. IC50)	IC50 [2]	IC50 [3]	IC50 ([1]; read-out: PI3Kγ Avg. IC50)
N#CCCCn1cc(C=C2Oc3cc(O)cc(O)c3C2=O)c2c(O)cccc21 [Example 257, 4-{3-[(4,6-dihydroxy-3-oxo-1-benzofuran-2(3H)-ylidene)methyl]-4-hydroxy-1H-indol-1-yl}butanenitrile]	2240 nM	180 nM	12000 nM	
Cn1c(-c2ccc(O)cc2)c(C=C2Oc3cc(O)cc(O)c3C2=O)c2ccccc21 [Example 193, 4,6-dihydroxy-2-{[2-(4-hydroxyphenyl)-1-methyl-1H-indol-3-yl]methylene}-1-benzofuran-3(2H)-one]	7660 nM	1120 nM	85 nM	
COc1ccc2c(c1)c(/C=C1\Oc3c(ccc(O)c3F)C1=O)c(C)n2CCN1CCN(C)CC1 [Example 457, (2Z)-7-Fluoro-6-hydroxy-2-({5-methoxy-2-methyl-1-[2-(4-methylpiperazin-1-yl)ethyl]-1H-indol-3-yl}methylene)-1-benzofuran-3(2H)-one]	5050 nM	74 nM	> 20000 nM	
Cn1c(-c2ccccc2)c(/C=C2\Oc3cc(O)cc(O)c3C2=O)c2c(C#N)cccc21 [Example 437, 3-[(Z)-(4,6-dihydroxy-3-oxo-1-benzofuran-2(3H)-ylidene)methyl]-1-methyl-2-phenyl-1H-indole-4-carbonitrile]	> 10000 nM	1600 nM	< 23 nM	
Cn1cc(/C=C2\Oc3cc(O)cc(O)c3C2=O)c2c(-c3ccc(-c4ccc(CN)cc4)cc3)cccc21 [Example 300, (2Z)-2-({4-[4′-(Aminomethyl)biphenyl-4-yl]-1-methyl-1H-indol-3-yl}methylene)-4,6-dihydroxy-1-benzofuran-3(2H)-one]	9500 nM	2860 nM	132 nM	
COc1ccc2c(c1)c(C=C1Oc3c(ccc(O)c3O)C1=O)c(C)n2C [Example 90, 6,7-dihydroxy-2-[(5-methoxy-1,2-dimethyl-1H-indol-3-yl)methylene]-1-benzofuran-3(2H)-one]	1220 nM	202 nM	1590 nM	
N#CCCCCn1c(-c2ccccc2)c(C=C2Oc3cc(O)cc(O)c3C2=O)c2ccccc21 [Example 224, 5-{3-[(4,6-dihydroxy-3-oxo-1-benzofuran-2(3H)-ylidene)methyl]-2-phenyl-1H-indol-1-yl}pentanenitrile]	> 10000 nM	751 nM	480 nM	
CCn1c(-c2ccccc2)c(C=C2Oc3cc(O)cc(O)c3C2=O)c2ccccc21 [Example 213, 2-[(1-ethyl-2-phenyl-1H-indol-3-yl)methylene]-4,6-dihydroxy-1-benzofuran-3(2H)-one]	2650 nM	770 nM	170 nM	
N#CCCCn1cc(C=C2Oc3cc(O)cc(O)c3C2=O)c2c(Br)cccc21 [Example 230, 4-{4-bromo-3-[(4,6-dihydroxy-3-oxo-1-benzofuran-2(3H)-ylidene)methyl]-1H-indol-1-yl}butanenitrile]	> 10000 nM	2020 nM	3400 nM	
COC(=O)Nc1ccc2c(c1)OC(=Cc1cn(CCCN(C)C)c3ccc(OC)cc13)C2=O [Example 405, Methyl [2-({1-[3-(dimethylamino)propyl]-5-methoxy-1H-indol-3-yl}methylene)-3-oxo-2,3-dihydro-1-benzofuran-6-yl]carbamate]	> 10000 nM	> 10000 nM	> 20000 nM	

Compounds with a lower IC50 [2], results first:

IC50 ([1]; PI3Kγ Avg. IC50)	IC50 [2]	IC50 [3]	IC50 ([1]; read-out: PI3Kγ Avg. IC50)	Structure (SMILES)
4 nM	0.6 nM	4 nM		COc1ccc2[nH]c(-c3c(C)nn(C)c3C)c(/C=C3\Oc4ccc(NC(=O)Nc5ccc(C(=O)N(C)C)cc5)cc4C3=O)c2c1 [Compound 704, 4-({[(2Z)-2-{[5-methoxy-2-(1,3,5-trimethyl-1H-pyrazol-4-yl)-1H-indol-3-yl]methylidene}-3-oxo-2,3-dihydro-1-benzofuran-5-yl]carbamoyl}amino)-N,N-dimethylbenzamide]
	3.5 nM	225 nM	355 nM	CNC(=O)Nc1ccc2c(c1)C(=O)/C(=C/c1c(-c3nc(C(C)C)no3)n(CCN3CCN(C)CC3)c3ccc(OC)cc13)O2 [Compound 621, 1-[(2Z)-2-({5-methoxy-2-[3-(1-methylethyl)-1,2,4-oxadiazol-5-yl]-1-[2-(4-methylpiperazin-1-yl)ethyl]-1H-indol-3-yl}methylidene)-3-oxo-2,3-dihydro-1-benzofuran-5-yl]-3-methylurea]
105 nM	1.7 nM	1.3 nM		COc1ccc2c(c1)c(/C=C1\Oc3cc(O)cc(O)c3C1=O)c(C1CCCCC1)n2CCN1CCN(C)CC1 [Example 447, (2Z)-2-({2-Cyclohexyl-5-methoxy-1-[2-(4-methylpiperazin-1-yl)ethyl]-1H-indol-3-yl}methylene)-4,6-dihydroxy-1-benzofuran-3(2H)-one]
3.7 nM	0.55 nM	< 1 nM		CNC(=O)Nc1ccc2c(c1)C(=O)/C(=C/c1c(-c3c(C)n[nH]c3C)[nH]c3c(F)cc(OC)cc13)O2 [Compound 714, 1-[(2Z)-2-{[2-(3,5-dimethyl-1H-pyrazol-4-yl)-7-fluoro-5-methoxy-1H-indol-3-yl]methylidene}-3-oxo-2,3-dihydro-1-benzofuran-5-yl]-3-methylurea]
3.5 nM	0.4 nM	84 nM		CCn1c(C)c(/C=C2\Oc3ccc(NC(=O)Nc4ccc(C(=O)N(C)CCCN(C)C)cc4)cc3C2=O)c2cc(OC)ccc21 [Compound 657, N-[3-(dimethylamino)propyl]-4-[({(2Z)-2-[(1-ethyl-5-methoxy-2-methyl-1H-indol-3-yl)methylene]-3-oxo-2,3-dihydro-1-benzofuran-5-yl}carbamoyl)amino]-N-methylbenzamide]
20.3 nM	3.5 nM	133 nM		CCn1c(C)c(/C=C2\Oc3ccc(NC(=O)Nc4ccc(CCN(C)C)cc4)cc3C2=O)c2cc(OC)ccc21 [Compound 670, 1-{4-[2-(dimethylamino)ethyl]phenyl}-3-{(2Z)-2-[(1-ethyl-5-methoxy-2-methyl-1H-indol-3-yl)methylidene]-3-oxo-2,3-dihydro-1-benzofuran-5-yl}urea]
2.25 nM	0.6 nM	1 nM		COc1cc(F)c2[nH]c(-c3c(C)nn(C)c3C)c(/C=C3\Oc4ccc(NC(=O)Nc5ccc(C(=O)N6CCN(CCO)CC6)cc5)cc4C3=O)c2c1 [Compound 721, 1-[(2Z)-2-{[7-fluoro-5-methoxy-2-(1,3,5-trimethyl-1H-pyrazol-4-yl)-1H-indol-3-yl]methylidene}-3-oxo-2,3-dihydro-1-benzofuran-5-yl]-3-(4-{[4-(2-hydroxyethyl)piperazin-1-yl]carbonyl}phenyl)urea]
44 nM	1.1 nM	87 nM		COc1ccc2c(c1)c(/C=C1\Oc3ccc(NC(=O)Nc4ccc(C(=O)N5CCOCC5)cc4)cc3C1=O)c(C)n2CCN1CCN(C)CC1 [Compound 687, 1-[(2Z)-2-({5-methoxy-2-methyl-1-[2-(4-methylpiperazin-1-yl)ethyl]-1H-indol-3-yl}methylidene)-3-oxo-2,3-dihydro-1-benzofuran-5-yl]-3-[4-(morpholin-4-ylcarbonyl)phenyl]urea]
7.5 nM	1.5 nM	88 nM		CCn1c(C)c(/C=C2\Oc3ccc(NC(=O)Nc4ccc(OCCCN(C)C)cc4)cc3C2=O)c2cc(OC)ccc21 [Compound 654, 1-{4-[3-(dimethylamino)propoxy]phenyl}-3-{(2Z)-2-[(1-ethyl-5-methoxy-2-methyl-1H-indol-3-yl)methylene]-3-oxo-2,3-dihydro-1-benzofuran-5-yl}urea]
